Test results: ChEMBL document CHEMBL1201862, “PubChem BioAssay data set” (2004)
Several values for one entry are separate records, joined by “and”; a condition that tells them apart may be missing. Equal entries are not always repeated. Activity calls are given as the source filed them.

Legend:
[1] = viability loss in THP-1 monocytes – THP-1 cells, cytotoxicity control for Vif-APOBEC3G degradation inhibitor project, dose response (AID 1117359); assay type: functional; conditions: THP-1
[2] = blockers of HIV-1 ZM109 envelope-driven cell-cell fusion – HeLa effector, CEM target cells, luciferase, cherry-pick, dose response (AID 652058); assay type: functional, cell-based;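 further: luciferase signal from HIV-1 Env mediated cell-cell fusion of effector and target cells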
[3] = target: Beta-2 adrenergic receptor (Homo sapiens, UniProt P07550); test: ADRB2 activation measured by internalization – cell-based, FAP fluorogen, flow cytometry, cherry pick 1, dose response (AID 588763); assay type: functional
[4] = HIV-1 AD8 envelope cell-cell fusion blockers – cherry-pick, dose response (AID 652062); assay type: functional, cell-based;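 further: luciferase signal from cell-cell fusion driven by HIV-1 clade B AD8 Env; potency is for inhibitors of fusion seen as a drop in luminescence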
[5] = viability loss in CEM21 cells – cell-based, plate reader, dry powder, cytotoxicity control, dose response (AID 687026); assay type: functional
[6] = blockers of HIV-1 envelope-mediated cell-cell fusion – cherry-pick, dose response (AID 652057); assay type: functional, cell-based
[7] = off-target signal loss in HeLa-CEM21 co-culture – HeLa F-luc CTL cells, cherry-picked, counter-screen for HIV-1 Env fusion inhibitor project, dose response (AID 652040); assay type: functional, cell-based;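 further: potency for signal decrease marking cytotoxic or nonspecific inhibition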
[8] = target: T1, Oxysterols receptor LXR-beta (Homo sapiens, UniProt P55055); assay type: functional, cell-based;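 further: Cell-based luminescence dose-response assay of agonist activity at LXR, run as a confirmatory counterscreen to a daf-12 agonist screen; HEK293 cells with Gal4-LXR fusion and GAL4-driven luciferase reporter; agonist potency from rising luciferase signal of a Gal4-LXR reporter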
T1 sequence (P55055 whole entry): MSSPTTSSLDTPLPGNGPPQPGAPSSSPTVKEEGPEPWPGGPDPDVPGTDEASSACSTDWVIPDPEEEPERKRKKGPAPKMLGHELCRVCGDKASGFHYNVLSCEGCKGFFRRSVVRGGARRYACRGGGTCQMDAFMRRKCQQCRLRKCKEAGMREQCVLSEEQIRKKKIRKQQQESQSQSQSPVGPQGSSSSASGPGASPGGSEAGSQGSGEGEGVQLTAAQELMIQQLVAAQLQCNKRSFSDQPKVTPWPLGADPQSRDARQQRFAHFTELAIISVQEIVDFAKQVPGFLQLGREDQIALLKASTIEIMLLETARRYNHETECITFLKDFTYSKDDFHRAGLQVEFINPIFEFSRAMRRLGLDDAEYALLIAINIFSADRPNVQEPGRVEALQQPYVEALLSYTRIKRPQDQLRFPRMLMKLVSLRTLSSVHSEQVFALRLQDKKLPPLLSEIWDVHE

Protein skinhead-1 = target: T2, Protein skinhead-1 (Caenorhabditis elegans, UniProt P34707); assay type: functional
T2 sequence (P34707 whole entry): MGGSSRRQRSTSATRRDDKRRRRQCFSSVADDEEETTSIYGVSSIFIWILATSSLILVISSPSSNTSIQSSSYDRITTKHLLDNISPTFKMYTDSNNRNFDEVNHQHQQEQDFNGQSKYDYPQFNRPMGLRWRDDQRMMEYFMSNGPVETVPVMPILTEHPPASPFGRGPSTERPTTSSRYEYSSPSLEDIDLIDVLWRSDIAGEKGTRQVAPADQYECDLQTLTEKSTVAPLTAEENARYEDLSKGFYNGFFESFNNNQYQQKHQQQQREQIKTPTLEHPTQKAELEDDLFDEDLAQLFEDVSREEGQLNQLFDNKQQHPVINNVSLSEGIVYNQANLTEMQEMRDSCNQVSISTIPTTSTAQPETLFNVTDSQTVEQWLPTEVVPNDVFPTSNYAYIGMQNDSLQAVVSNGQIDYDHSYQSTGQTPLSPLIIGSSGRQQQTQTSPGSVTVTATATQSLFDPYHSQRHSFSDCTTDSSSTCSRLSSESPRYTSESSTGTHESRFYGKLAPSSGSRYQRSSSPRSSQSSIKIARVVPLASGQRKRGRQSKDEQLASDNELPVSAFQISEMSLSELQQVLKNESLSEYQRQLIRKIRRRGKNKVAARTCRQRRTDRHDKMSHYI

INS1 = test: INS-1E survival protection against cytokine death – cell-based, luminescence, retest, dose response (AID 449756); assay type: functional; conditions: Rattus norvegicus;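 further: cell death triggered by IL-1 beta plus TNF-alpha plus IFN-gamma mixture; protective hits raise ATP signal compared with cytokine alone wells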
[9] = alpha-synuclein stem-loop luciferase translation blockers – H4 neuroglioma cells, luminescence, confirmation (AID 1988); assay type: functional, cell-based
[10] = luciferase reporter signal suppression in cells – H4 neuroglioma cells, luminescence, dose response (AID 1990); assay type: functional, cell-based
Nonstructural protein 1 = Nonstructural protein 1 (Influenza A virus, UniProt Q194T2); assay type: functional, Influenza A virus (A/California/07/2009(H1N1))
Bcl-2-related protein A1 [11] = target: T3, Bcl-2-related protein A1 (Mus musculus, UniProt Q07440); test: displacement of Bid BH3 peptide from Bfl-1 – biochemical, fluorescence polarization, FITC-Bid, mouse, primary screen (AID 432)
T3 sequence (Q07440 whole entry): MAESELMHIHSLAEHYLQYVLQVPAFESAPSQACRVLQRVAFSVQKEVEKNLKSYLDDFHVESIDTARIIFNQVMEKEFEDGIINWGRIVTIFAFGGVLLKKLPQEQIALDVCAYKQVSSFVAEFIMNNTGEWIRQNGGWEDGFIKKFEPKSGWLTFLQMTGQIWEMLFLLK

Bcl-2-related protein A1 [12] = target: T3, Bcl-2-related protein A1; test: small-molecule antagonists of Bfl-1/BH3 interaction – biochemical, TR-FRET, mouse Bfl-1, confirmation (AID 621);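 further: TR-FRET binding of GST-Bfl-1 to FITC-labelled Bid peptide via terbium antibody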
[13] = NIH3T3 cell viability loss – ATP luminescence, mouse fibroblasts, counter-screen, dose response (AID 2010); assay type: functional, cell-based;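 further: cells exposed to compound for about 90 hours before reading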
[14] = Luminescence Cell-Based Dose Response HTS to Identify Inhibitors of 5'UTR Stem-Loop Driven Prion Protein mRNA Translation in H4 Neuroglioblastoma Cells. [Related pubchem assays: 1827 (Project Summary), 1813 (Primary HTS)]; assay type: functional
[15] = Trypanosoma cruzi growth suppression in host cells – NIH3T3 host cells, beta-gal luminescence, confirmation (AID 2044); assay type: functional, cell-based;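 further: intracellular parasites grown in NIH/3T3 mouse fibroblasts as host cells; luminescent beta-galactosidase reporter signal from transgenic T. cruzi replicating inside host cells; inhibitors lower the luminescence signal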
Transthyretin = Transthyretin (Homo sapiens, UniProt P02766); test: Luminescence-based cell-based high throughput dose response assay to identify activators of Transthyretin (TTR) transcription.; assay type: functional
[16] = target: Metabotropic glutamate receptor 5 (Rattus norvegicus, UniProt P31424); test: Identification of a glycine sulfonamide based non-MPEP site positive allosteric potentiator (PAM) of mGlu5 (calcium_assay).; assay type: functional
[17] = COV362 cell viability loss – plate reader, dry powder, SA12, cytotoxicity control for PAX8 inhibitor project, dose response (AID 743144); assay type: functional, cell-based
[18] = PAX5 cellular inhibition readout – cell-based, plate reader, dry powder samples, selectivity assay for PAX8 inhibitor project, dose response (AID 743047); assay type: functional;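 further: HEK293 cells carrying a Pax5 driven CD19 promoter luciferase reporter; potency of inhibitors that lower reporter luminescence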
Paired box protein Pax-8 = Paired box protein Pax-8 (Homo sapiens, UniProt Q06710); test: PAX8 transcriptional activity inhibition in RMG-I – RMG-I cells, luciferase, cherry-pick, dose response (AID 687027); assay type: functional, cell-based;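 further: luciferase reporter driven by Pax8 target thyroperoxidase promoter measured by SteadyGlo luminescence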
[19] = P. falciparum Dd2 growth inhibitors, dose response, SYBR Green, cherry-picked samples (AID 1159567); assay type: functional, cell-based
[20] = OV-90 cell viability loss – plate reader, dry powder, SA8, PAX8 inhibitor project, dose response (AID 743149); assay type: functional, cell-based
[21] = PAX8-dependent cell viability loss – plate reader, dry powder, dose response (AID 743049); assay type: functional, cell-based
[22] = inhibitors acting on PAX2 in cells – cell-based, plate reader, dry powder samples, selectivity assay for PAX8 inhibitor project, dose response (AID 743048); assay type: functional;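 further: HEK293 cells carrying a WT1 promoter luciferase reporter driven by expressed Pax2; potency is for inhibition of Pax2 driven reporter signal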
HEK293 = test: viability loss in HEK293T cells – cell-based, ATP luminescence, cherry-pick samples, cytotoxicity control, dose response (AID 687005); assay type: functional; conditions: Homo sapiens;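 further: cells exposed to compound for 48 hours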
[23] = HEK293 Cytotoxicity Assay Measured in Cell-Based System Using Plate Reader - 7071-01_Inhibitor_Dose_CherryPick_Activity_Set2.; assay type: functional
[24] = A2780 cell killing – plate reader, dry powder samples, cytotoxicity control, dose response (AID 743046); assay type: functional, cell-based
[25] = OVCAR8 cell viability loss – plate reader, dry powder samples, PAX8 project, dose response (AID 743197); assay type: functional, cell-based; conditions: OVCAR-8
[26] = IGROV1 cell killing – plate reader, dry powder samples, PAX8 inhibitor project, dose response (AID 743043); assay type: functional, cell-based; conditions: IGROV-1
[27] = OVCAR-3 cell viability loss – plate reader, dry powder samples, PAX8 inhibitor project, dose response (AID 743044); assay type: functional, cell-based
[28] = toxicity toward immortalized ovarian surface epithelium – cell-based, plate reader, dry powder samples, cytotoxicity control for PAX8 inhibitor project, dose response (AID 743045); assay type: functional

Chain of Paired box protein Pax-8 (Q06710 whole entry): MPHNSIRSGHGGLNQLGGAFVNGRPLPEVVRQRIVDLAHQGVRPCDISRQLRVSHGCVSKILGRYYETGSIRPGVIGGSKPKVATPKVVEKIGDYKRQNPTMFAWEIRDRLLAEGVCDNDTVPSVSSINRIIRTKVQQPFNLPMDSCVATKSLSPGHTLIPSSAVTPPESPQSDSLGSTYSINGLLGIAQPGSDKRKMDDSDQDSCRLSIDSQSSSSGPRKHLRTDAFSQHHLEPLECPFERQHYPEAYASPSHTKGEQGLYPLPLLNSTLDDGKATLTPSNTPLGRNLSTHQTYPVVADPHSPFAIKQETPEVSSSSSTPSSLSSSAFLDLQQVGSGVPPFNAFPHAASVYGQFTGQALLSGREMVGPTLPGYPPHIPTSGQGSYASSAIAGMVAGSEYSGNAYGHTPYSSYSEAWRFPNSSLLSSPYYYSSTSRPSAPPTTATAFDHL
Chain of Metabotropic glutamate receptor 5 (P31424 whole entry): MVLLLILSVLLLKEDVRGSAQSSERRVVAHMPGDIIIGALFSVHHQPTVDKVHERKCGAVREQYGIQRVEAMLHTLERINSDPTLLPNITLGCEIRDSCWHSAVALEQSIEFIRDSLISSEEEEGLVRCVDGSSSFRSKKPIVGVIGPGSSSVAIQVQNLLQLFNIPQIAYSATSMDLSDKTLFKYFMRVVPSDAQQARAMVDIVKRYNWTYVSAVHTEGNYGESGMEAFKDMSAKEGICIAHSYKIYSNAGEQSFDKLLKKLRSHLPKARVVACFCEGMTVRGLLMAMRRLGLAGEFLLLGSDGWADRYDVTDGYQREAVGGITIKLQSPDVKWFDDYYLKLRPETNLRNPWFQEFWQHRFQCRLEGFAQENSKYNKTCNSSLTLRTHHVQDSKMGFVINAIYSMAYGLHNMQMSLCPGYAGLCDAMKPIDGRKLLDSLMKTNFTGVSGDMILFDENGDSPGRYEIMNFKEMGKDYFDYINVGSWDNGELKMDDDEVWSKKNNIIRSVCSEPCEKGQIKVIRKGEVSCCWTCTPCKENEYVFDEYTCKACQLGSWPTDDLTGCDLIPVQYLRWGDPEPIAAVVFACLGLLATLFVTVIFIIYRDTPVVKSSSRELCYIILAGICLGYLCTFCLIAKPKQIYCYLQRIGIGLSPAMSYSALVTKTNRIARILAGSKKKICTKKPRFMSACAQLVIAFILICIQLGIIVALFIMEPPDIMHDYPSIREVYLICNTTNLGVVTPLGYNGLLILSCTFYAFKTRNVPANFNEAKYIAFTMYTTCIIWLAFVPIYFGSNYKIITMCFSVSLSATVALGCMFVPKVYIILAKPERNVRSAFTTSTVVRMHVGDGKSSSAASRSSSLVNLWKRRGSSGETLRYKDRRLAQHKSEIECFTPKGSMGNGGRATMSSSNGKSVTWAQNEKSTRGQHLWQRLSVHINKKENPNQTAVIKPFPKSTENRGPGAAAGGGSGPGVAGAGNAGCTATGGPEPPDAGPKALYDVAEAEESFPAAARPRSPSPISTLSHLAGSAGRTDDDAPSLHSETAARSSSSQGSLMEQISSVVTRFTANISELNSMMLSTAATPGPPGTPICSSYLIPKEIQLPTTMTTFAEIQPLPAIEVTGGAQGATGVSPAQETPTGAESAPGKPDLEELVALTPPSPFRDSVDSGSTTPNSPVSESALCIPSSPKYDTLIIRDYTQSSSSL
Chain of Beta-2 adrenergic receptor (P07550 whole entry, the tested form may be a part): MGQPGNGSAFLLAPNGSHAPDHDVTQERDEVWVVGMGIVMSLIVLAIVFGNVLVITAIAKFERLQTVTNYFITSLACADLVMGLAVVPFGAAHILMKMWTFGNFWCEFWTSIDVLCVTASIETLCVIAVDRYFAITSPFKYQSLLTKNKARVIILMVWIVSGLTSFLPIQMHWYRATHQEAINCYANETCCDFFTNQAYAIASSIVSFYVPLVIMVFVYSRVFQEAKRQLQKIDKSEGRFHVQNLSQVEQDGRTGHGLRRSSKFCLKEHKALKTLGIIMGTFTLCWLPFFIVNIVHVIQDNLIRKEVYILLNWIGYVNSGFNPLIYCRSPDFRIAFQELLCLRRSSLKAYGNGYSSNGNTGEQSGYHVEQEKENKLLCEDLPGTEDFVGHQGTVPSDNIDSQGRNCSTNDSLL
Chain of Nonstructural protein 1 (Q194T2 whole entry): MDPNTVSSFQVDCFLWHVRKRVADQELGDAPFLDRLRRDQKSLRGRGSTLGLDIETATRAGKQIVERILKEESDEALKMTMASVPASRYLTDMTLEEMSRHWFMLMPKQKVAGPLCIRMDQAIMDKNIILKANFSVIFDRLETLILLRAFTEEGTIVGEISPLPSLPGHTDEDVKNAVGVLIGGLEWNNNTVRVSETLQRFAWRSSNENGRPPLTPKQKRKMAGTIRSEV

In the case of `CC(C)Oc1ccc(C(=O)N(Cc2ccco2)C2CCS(=O)(=O)C2)cc1` (stereo unspecified), the CC50 [1] is reported as > 40 µM (active).
In the case of `O=C(CCc1ccc(S(=O)(=O)N2CCOCC2)cc1)Nc1nc(COc2ccccc2)cs1`, the AC50 [2] is reported as 1.07 µM (active), the EC50 [3] is reported as 1.4 µM (active) and the AC50 [4] is reported as 4.58 µM (active). For the same compound, the AC50 [5] was > 70 µM (inactive) and 50.5 µM (active), the AC50 [6] was 1.65 µM (active) and the AC50 [7] was > 70 µM (inactive).
In the case of `Fc1ccccc1-c1nc(-c2ccc(Br)o2)no1`, the EC50 [8] is reported as > 67.6 µM (inactive), the IC50 (Protein skinhead-1) is reported as > 100 µM (inactive) and the EC50 (cells) is reported as > 67.6 µM (inactive).
For `Nc1ccc(N2CCCCC2)cc1N1CCCCC1`, the AC50 (INS1) was 12.9 µM (active), the EC50 [9] was > 120 µM (not active) and the EC50 [10] was > 120 µM (not active). For the same compound, the IC50 (Nonstructural protein 1) was 16.1 µM (active), the IC50 (Bcl-2-related protein A1 [11]) was > 100 µM (not active) and the IC50 (Bcl-2-related protein A1 [12]) was > 100 µM (not active). For the same compound, the EC50 [13] was > 60 µM (not active), the EC50 [14] was > 120 µM (not active) and the EC50 [15] was 0.197 µM (active).
For `Cn1ncc(Cl)c1C(=O)N1CCc2ccccc21`, the EC50 (Transthyretin) was > 167 µM (inactive).
Work on `O=S(=O)(c1ccc(C#Cc2cccc(F)c2)cc1)N1CCOCC1` yielded an EC50 [16] of 0.427 µM.
With `N#C[C@H]1[C@@H](c2ccc(C#CC3CCCCC3)cc2)[C@@H](CO)N1S(=O)(=O)c1ccccc1` the AC50 [17] was 61.4 µM (active), the AC50 [18] was 19.3 µM (active) and the AC50 (Paired box protein Pax-8) was 8.09 µM (active). The AC50 [19] was 4.94 µM (active), the AC50 [20] was 32.3 µM (active) and the AC50 [21] was 18.7 µM (active). The AC50 [22] was 19 µM (active).
For `Cc1noc(C)c1NC(=O)N(C)C[C@@H]1Oc2ccc(NC(=O)NC(C)C)cc2CC(=O)N([C@H](C)CO)C[C@H]1C`, the AC50 (HEK293) was 1.61 µM (active) and the AC50 [23] was 1.61 µM (active).
In the case of `Cc1ccc(S(=O)(=O)N(C)C[C@@H]2Oc3ccc(NC(=O)Nc4ccc(C(F)(F)F)cc4)cc3CC(=O)N([C@H](C)CO)C[C@@H]2C)cc1`, the AC50 (Paired box protein Pax-8) is reported as 3.06 µM (active), the AC50 [24] is reported as 20.7 µM (active) and the AC50 [25] is reported as 14.3 µM (active). The AC50 [26] was 10.1 µM (active), the AC50 [27] was 3.11 µM (active) and the AC50 [28] was 9.76 µM (active).
